Data taken from patent publication US20090062395A1, “RENIN INHIBITORS FOR THE TREATMENT OF HYPERTENSION” (priority 2006, published 2009).

What was measured:
[1] = tested on: patients; assay: Long-term study, placebo-controlled randomized withdrawal period from month 11 (visit 10); type: in vivo, human; conditions: for Mean change (SD) from Month 11 (Visit 10) in msDBP / Mean change (SD) from Month 11 (Visit 10) in msSBP: continued aliskiren monotherapy 150 or 300 mg
Experimental: Persistence of effect was examined after a long-term study in which patients were treated for approximately 1 year. Patients were randomly assigned to aliskiren at either 150 mg or 300 mg a day. Aliskiren was increased to 300 mg in those patients who had not responded to 150 mg. Starting at the end of treatment month 2 and 3, investigators adjusted individual therapy in order to achieve a goal BP of <140/90 mm Hg. Subsequent upward dose titration required that BP exceed 140/90 for two consecutive visits. No downward titration of aliskiren was permitted.
At month 11 (visit 10), patients who had been maintained on aliskiren monotherapy entered a placebo-controlled randomized withdrawal study to confirm continued efficacy. Eligible patients were stratified based on dose and randomized in a 1:1 ratio to either continue their current treatment of aliskiren monotherapy (aliskiren 150 mg or aliskiren 300 mg) or be switched to placebo in a double-blind fashion.
The potential for a rebound effect on BP with abrupt treatment withdrawal was evaluated.
Rebound was defined as a rise of >5 mm Hg for diastolic and >10 mm for systolic was used and the results are presented separately.

[2] = tested on: patients; assay: Abrupt withdrawal of aliskiren after eight weeks of treatment, compared with placebo (FIG. 3); type: in vivo, human
Experimental: In another study, the potential for rebound hypertension following abrupt withdrawal of aliskiren treatment was evaluated in those patients who completed eight weeks of treatment compared to patients that were given a placebo only. The tested doses were 150, 300 and 600 mg of aliskiren.

[3] = End point: Month 11 + 28 days or last visit carried forward
[4] = Visit 11, Month 11 + 7 Days, randomized withdrawal ITT population

## COCCCOc1cc(C[C@@H](C[C@H](N)[C@@H](O)C[C@H](C(=O)NCC(C)(C)C(N)=O)C(C)C)C(C)C)ccc1OC [aliskiren, 2(S),4(S),5(S),7(S)—N-(3-amino-2,2-dimethyl-3-oxopropyl)-2,7-di(1-methylethyl)-4-hydroxy-5-amino-8-[4-methoxy-3-(3-methoxy-propoxy)phenyl]-octanamide]
[1]; [3]
  Mean change (SD) from Month 11 (Visit 10) in msDBP: 1.2 (6.9) mm Hg
  Mean change (SD) from Month 11 (Visit 10) in msSBP: 1.7 (10.1) mm Hg
[1]; [4]
  Mean change (SD) from Month 11 (Visit 10) in msDBP: 0.3 (6.8) mm Hg
  Mean change (SD) from Month 11 (Visit 10) in msSBP: 1.3 (10.3) mm Hg
[1]; Visit 12, Month 11 + 14 Days
  Mean change (SD) from Month 11 (Visit 10) in msDBP: 0.3 (6.8) mm Hg
  Mean change (SD) from Month 11 (Visit 10) in msSBP: 0.3 (10.4) mm Hg
[1]; Visit 13, Month 11 + 21 Days
  Mean change (SD) from Month 11 (Visit 10) in msDBP: 0.4 (6.7) mm Hg
  Mean change (SD) from Month 11 (Visit 10) in msSBP: 0.5 (10.6) mm Hg
[1]; Visit 14, Month 11 + 28 Days
  Mean change (SD) from Month 11 (Visit 10) in msDBP: 1.1 (6.8) mm Hg
  Mean change (SD) from Month 11 (Visit 10) in msSBP: 1.8 (10.1) mm Hg
[1]; patients switched to placebo at month 11 after aliskiren 150 or 300 mg monotherapy
  Persistence of blood pressure lowering effect after withdrawal: a persistence of a blood pressure lowering effect was observed for several weeks after withdrawal
[1]; rebound defined as rise of >5 mm Hg diastolic and >10 mm systolic
  Rebound effect on BP with abrupt treatment withdrawal: no sign of rebound
[2]; 4 days and 2 weeks after drug withdrawal, aliskiren 150 mg, 300 mg and 600 mg groups versus placebo group
  Patients with msDBP and msSBP values remaining below baseline: more patients in the aliskiren 150 mg, 300 mg, and 600 mg groups had msDBP and msSBP values that remained below baseline compared with the placebo group
[2]; after eight weeks of aliskiren 150, 300 or 600 mg, study period of two weeks
  Persistence of the antihypertensive effect following withdrawal: a good persistence of the antihypertensive effect
[2]; after eight weeks of aliskiren 150, 300 or 600 mg, two weeks after withdrawal
  Rebound hypertension following abrupt withdrawal: no signs of rebound hypertension
[2]; aliskiren 150, 300 and 600 mg for eight weeks, throughout the drug withdrawal period
  BP after withdrawal of study drug versus placebo group: values still remained lower than those in the placebo group
